{"source": "patent US20070280915A1", "about": "“Combination Therapies Employing A Composition Comprising A Hmg Coa Reductase Inhibitor And A Vitamin B6 Related Compound” (priority 2003, published 2007)", "key": {"CYP2B6": {"target": "T1, CYP2B6 (Homo sapiens, UniProt P20813)", "T1 sequence (P20813 1-491)": "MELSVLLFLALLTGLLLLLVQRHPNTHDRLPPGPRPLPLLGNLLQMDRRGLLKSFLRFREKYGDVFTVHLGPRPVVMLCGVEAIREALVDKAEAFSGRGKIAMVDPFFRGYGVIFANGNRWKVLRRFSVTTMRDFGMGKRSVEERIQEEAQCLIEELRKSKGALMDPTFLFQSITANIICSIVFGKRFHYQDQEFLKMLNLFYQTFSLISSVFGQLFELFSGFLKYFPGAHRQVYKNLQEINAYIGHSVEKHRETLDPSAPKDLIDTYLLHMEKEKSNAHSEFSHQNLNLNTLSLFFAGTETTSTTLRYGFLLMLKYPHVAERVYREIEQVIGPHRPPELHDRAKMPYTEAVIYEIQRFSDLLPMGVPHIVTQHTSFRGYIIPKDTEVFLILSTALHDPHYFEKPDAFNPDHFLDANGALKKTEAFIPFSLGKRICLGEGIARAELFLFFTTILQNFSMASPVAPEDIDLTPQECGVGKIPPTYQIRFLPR", "test": "CYP2B6 inhibition assay (substrate EFC)", "settings": "0.0169 to […] tested, na = concentration-dependent inhibition not observed", "description": "(§1) The CYP inhibition assays used microsomes (Supersomes®, Gentest Corp., Woburn, Mass.) prepared from insect cells, each expressing an individual CYP subtype (CYP1A2, CYP2A6, CYP2B6, CYP2C8, CYP2C9, CYP2C19, CYP2D6, CYP2E1 or CYP3A4) expressed from the corresponding human CYP cDNA using a baculovirus expression vector. The microsomes also incorporated supplemental cDNA-expressed human reductase and/or cytochrome b5, as these enzymes stimulate the activity of the CYPs, allowing for a reduction in the amount of enzyme required per reaction (Gentest Corp.). The assays monitored, via fluorescence detection, the formation of a fluorescent metabolite following incubation of the microsomes with a specific CYP substrate. […] Reactions (0.2 mL) were performed in 96-well microtitre plates at 37° C. in the presence of an NADPH regenerating system [NADP+, glucose-6-phosphate (G6P), glucose-6-phosphate dehydrogenase (G6PDH)] and MgCl2. […] All determinations were performed in duplicate. The reagent solutions used for all of the CYP subtype assays, except CYP2C19 and CYP3A4, were prepared by MBDI. For CYP2C19 and CYP3A4, complete reagent kits purchased from Gentest Corp. (CYP2C19/CEC: Cat. No. HTS-4000, Lot No. 1; CYP3A4/BFC: Cat. No. HTS-1000, Lot No. 1) were used to perform the assays.\n(§2) Eight inhibitor and test compound concentrations were tested using 3-fold serial dilutions. The microtitre plates containing 0.1 mL/well of the latter mixture were pre-warmed to 37° C. in an incubator. […] The amount of metabolic product formed was quantified by fluorescence detection in a fluorescence plate reader utilizing excitation and emission filters that had been optimized for the detection of each metabolite.\n(§3) Data Analysis—The mean of the duplicate fluorescent signals in the presence and absence (vehicle control) of each compound was calculated and corrected for the background noise. Percent inhibition was calculated as the difference in the corrected fluorescent signals in the absence and presence of the compound, divided by the corrected fluorescent signal in the absence of compound, multiplied by 100%."}, "[1]": {"test": "Effect of pyridoxal 5′-phosphate on fluorescence of the metabolic products of the CYP assays", "experimental": "Prior to performing the CYP inhibition assays, the effect of pyridoxal 5′-phosphate on the fluorescence of the metabolic products measured in the assays was evaluated. The fluorescence of metabolite (one concentration, in duplicate) was measured in the absence (0 μM) and presence of 0.457 to 1000 μM pyridoxal 5′-phosphate. The concentrations and metabolic products measured were: 1 μM 3-cyano-7-hydroxycoumarin (CHC), 2.5 μM 7-hydroxycoumarin (7-HC), 2.5 μM 7-hydroxy-4-trifluoromethylcoumarin (HFC), 0.1 μM fluorescein, 10 μM 3-[2-(N,N-diethylamino)ethyl]-7-hydroxy-4-methylcoumarin (AHMC) and 10 μM quinolinol. The concentration of metabolite used was based on the expected maximum concentration of metabolite formed in the CYP inhibition assay (i.e. the concentration of metabolite measured following incubation substrate with the CYP subtype in the absence of an inhibitor). CHC is the fluorescent metabolite measured in the CYP1A2 and CYP2C19 assays. 7-HC is the fluorescent metabolite measured in the CYP2A6 assay, HFC is the fluorescent metabolite measured in the CYP2B6, CYP2C9, CYP2E1 and CYP3A4 (BFC as substrate) assays and fluorescein is the metabolite measured in the CYP2C8 assay. AHMC is the metabolite measured in the CYP2D6 assay and quinolinol is measured in the CYP3A4 (BQ as substrate) assay. […]"}, "CYP2A6": {"target": "T2, CYP2A6 (Homo sapiens, UniProt P11509)", "T2 sequence (P11509 1-494)": "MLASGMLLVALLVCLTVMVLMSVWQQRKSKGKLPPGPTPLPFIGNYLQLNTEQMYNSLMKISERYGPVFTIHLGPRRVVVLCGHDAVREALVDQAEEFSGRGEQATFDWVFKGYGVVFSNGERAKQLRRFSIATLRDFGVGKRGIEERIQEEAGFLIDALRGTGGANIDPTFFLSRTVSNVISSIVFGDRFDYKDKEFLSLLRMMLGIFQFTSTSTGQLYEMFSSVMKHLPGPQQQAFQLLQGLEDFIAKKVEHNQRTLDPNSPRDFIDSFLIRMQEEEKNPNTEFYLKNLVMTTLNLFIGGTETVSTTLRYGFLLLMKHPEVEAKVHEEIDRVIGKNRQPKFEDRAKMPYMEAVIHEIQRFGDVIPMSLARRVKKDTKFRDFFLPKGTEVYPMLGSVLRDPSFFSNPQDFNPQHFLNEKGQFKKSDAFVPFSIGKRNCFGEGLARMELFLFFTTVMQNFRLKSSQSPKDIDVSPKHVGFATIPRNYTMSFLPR", "test": "CYP2A6 inhibition assay (substrate coumarin)", "settings": "0.0169 to […] tested, na = concentration-dependent inhibition not observed", "description": "as §1, §2, §3"}}, "data": [{"molecule": "Cc1ncc(COP(=O)(O)O)c(C=O)c1O", "note": "[P5P, pyridoxal-5-phosphate]", "values": [{"measurement": "Pyridoxal 5′-phosphate IC50", "setting": "CYP2B6", "result": "did not inhibit"}, {"measurement": "concentration at which fluorescence of metabolites was significantly quenched", "setting": "[1]; metabolites CHC, 7-HC, 7-HFC, AHMC and quinolinol, 0.457 to 1000 μM tested", "result": "> 37", "unit": "µM"}, {"measurement": "effect on the fluorescence of fluorescein", "setting": "[1]; up to 1000 μM, fluorescein is the CYP2C8 assay product", "result": "did not affect"}, {"measurement": "Pyridoxal 5′-phosphate IC50", "setting": "CYP2A6", "result": "did not inhibit"}]}]}
